Legend:
Type in all cases: in vivo
[1] = tested on: Foxtail, Giant (giant foxtail, Setaria faberi); assay: Test A1 preemergence, Foxtail, Giant
Outline: (§1)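 Plants grown in pots of loam/sand mix; preemergence = soil-directed spray on seeded pots, postemergence = spray at 1–2 leaves, height 2–10 cm; test chemicals formulated in non-phytotoxic solvent with surfactant.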

[2] = tested on: goosegrass (Eleusine indica); assay: Test A1 postemergence, goosegrass; conditions: Postemergence
Outline: (§2)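 Pre: seeds in loam/sand blend, directed soil spray. Post: potted plants, same soil, 2–10 cm, 1–2 leaf stage. Chemicals in non-phytotoxic solvent + surfactant for both.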

[3] = tested on: ragweed (common ragweed, Ambrosia artemisiifolia); assay: Test A1 preemergence, ragweed
Outline: as §1

[4] = tested on: galium (catchweed bedstraw, Galium aparine); assay: Test A1 postemergence, galium; conditions: Postemergence
Outline: as §2

[5] = tested on: blackgrass (Alopecurus myosuroides); assay: Test A1 postemergence, blackgrass; conditions: Postemergence, 0 to 100 scale (0 no effect, 100 complete control)
Outline: as §2

[6] = tested on: Ryegrass, Italian (Italian ryegrass, Lolium multiflorum); assay: Test A1 preemergence, Ryegrass, Italian
Outline: as §1

[7] = tested on: Foxtail, Giant (giant foxtail, Setaria faberi); assay: Test A1 postemergence, Foxtail, Giant; conditions: Postemergence
Outline: as §2

[8] = tested on: corn (Zea mays); assay: Test A1 preemergence, corn
Outline: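 Seeds were first planted into a blend of loam soil and sand and given a preemergence directed soil spray. In parallel, pots of the same soil were sown for postemergence application once plants reached 2 to 10 cm and the one- to two-leaf stage. Both used surfactant-containing non-phytotoxic solvent formulations.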

[9] = 31 g ai/ha, 0 to 100 scale (0 no effect, 100 complete control)
[10] = 125 g ai/ha, 0 to 100 scale, 0 no effect, 100 complete control
[11] = 31 g ai/ha, 0 to 100 scale (0 no effect, 100 complete control), 10 days

| SMILES | Plant response rating, Foxtail, Giant [1, 9] | Plant response rating, Foxtail, Giant [1, 10] | Plant response rating, Goosegrass [2, 11] | Plant response rating, Goosegrass ([2]; 125 g ai/ha, 0 to 100 scale) | Plant response rating, Ragweed [3, 9] | Plant response rating, Ragweed [3, 10] | Plant response rating, Galium [4, 11] | Plant response rating, Galium ([4]; 125 g ai/ha, 0 to 100 scale) | Plant response rating, Blackgrass ([5]; 31 g ai/ha, 10 days) | Plant response rating, Blackgrass ([5]; 125 g ai/ha) | Plant response rating, Ryegrass, Italian [6, 9] | Plant response rating, Ryegrass, Italian [6, 10] | Plant response rating, Foxtail, Giant [7, 11] | Plant response rating, Foxtail, Giant ([7]; 125 g ai/ha, 0 to 100 scale) | Plant response rating, Corn [8, 9] | Plant response rating, Corn [8, 10] |
| --- | --- | --- | --- | --- | --- | --- | --- | --- | --- | --- | --- | --- | --- | --- | --- | --- |
| CCC1ON=C(c2cc(N(COC(=O)C(C)(C)C)S(=O)(=O)C(F)(F)F)c(C)cc2C)C1CC (stereo not shown) [Compound 344] | 30 | 100 | 0 | 30 | 0 | 0 | 70 | 100 | 0 | 50 | 20 | 40 | 10 | 30 | 10 | 10 |
| COC(=O)OCN(c1cc(C2=NOC3CCCC23)c(C)cc1C)S(=O)(=O)C(F)(F)F (stereo not shown) [Compound 315] | 70 | 90 | 80 | 80 | 20 | 60 | 70 | 90 | 0 | 0 | 70 | 100 | 0 | 20 | 10 | 20 |
| Cc1c(NS(=O)(=O)C(F)(F)F)cc(C(=O)N2CC(C)OC(C)C2)c(C)c1C (stereo not shown) [Compound 328] | 20 | 100 | 20 | 80 | 10 | 80 | 80 | 100 | 0 | 0 | 30 | 100 | 0 | 70 | 10 | 60 |
| CCOC(=O)N(c1cc(C(=O)N2CCCCC2)c(C)c(C)c1C)S(=O)(=O)C(F)(F)F [Compound 330, Ethyl N-[(trifluoromethyl)sulfonyl]-N-[2,3,4-trimethyl-5-(1-piperidinylcarbonyl)phenyl]carbamate] | 80 | 100 | 0 | 40 | 40 | 70 | 50 | 60 | 0 | 40 | 0 | 90 | 20 | 80 | 0 | 0 |
| Cc1c(C(=O)N2CCOCC2)cc(NS(=O)(=O)C(F)(F)F)c(Cl)c1F [Compound 321] | 30 | 100 | 0 | 80 | 50 | 90 | 100 | 100 | 10 | 10 | 60 | 60 | 0 | 0 | 0 | 30 |
| Cc1c(C(=O)N2CCCCC2)cc(NS(=O)(=O)C(F)(F)F)c(Cl)c1F [Compound 333] | 30 | 100 | 0 | 30 | 0 | 70 | 70 | 90 | 0 | 30 | 30 | 50 | 10 | 30 | 0 | 0 |
| Cc1cc(C)c(N(COC(=O)OC(C)C)S(=O)(=O)C(F)(F)F)cc1C1=NOC2CCCC12 (stereo not shown) [Compound 314] | 30 | 90 | 60 | 80 | 0 | 60 | 60 | 70 | 0 | 10 | 40 | 90 | 10 | 30 | 10 | 40 |

From patent publication US20230278972A1, “SUBSTITUTED HALOALKYL SULFONANILIDE HERBICIDES” (FMC Corporation, priority 2020, published 2023)
